Measurements: patent US20070184549A1, “Method of inducing fenestrae” (priority 2004, published 2007)

Columns and labels:
[1] = test system: primary liver endothelial cells; details: cited from earlier work
[2] = test system: bEND5 cells; assay: Fenestrae induction in bEND5 cells, quantified by stereology on SEM or wholemount TEM images; details: for induction of fenestrae compared to the untreated control: cytochalasin B (10 nM) or Latrunculin A (2.5 nM) alone; for induction of fenestrae compared to the untreated control / maximum number of fenestrae: SEM; for maximum number of fenestrae: cytochalasin B at 2 hours, latrunculin A after 3 hours; for time of treatment at maximum number of fenestrae: single agent, SEM time-course; for fenestrae formation: 2.5 μM Latrunculin A, 3 hours, wholemount TEM
Source text: Images were printed, and sieve plates were marked (solid line). A grid (20 mm×20 mm) was overlaid over each image and the number of grid points falling within the areas delineated or on any cellular structure were counted. Fenestrae abundance was estimated based on the following calculation: Plasma membrane coverage (or fraction of the plasma membrane occupied by sieve plates)=grid points falling on sieve plates/grid points falling on any cell area. To express abundance in terms of the number of fenestrae per area of plasma membrane, the density of fenestrae within sieve plates was calculated and multiplied by the frequency of sieve plates as follows: number of fenestrae per square μm=density of fenestrae×plasma membrane coverage.
A quantitative assessment of fenestrae numbers was achieved by applying Stereology to SEM or wholemount TEM images (FIG. 3). Quantitative assessment comprised overlaying a lattice on top of an image and counting points falling on fenestrated and on non-fenestrated areas of the plasma membrane. Amounts of fenestrae were routinely expressed as fractions of plasma membrane area that was fenestrated (point counts falling on fenestrae divided by point counts falling on any plasma membrane area). To compare these numbers with measurements in previous in vivo or in vitro studies, the density of individual fenestrae within sieve plates was estimated, which when multiplied by the fraction of plasma membrane coverage equaled the number of fenestrae per μm^2 of plasma membrane.
Coverslips and dishes were coated with 1% gelatin (Sigma) solution in PBS for 30 minutes at room temperature. Endothelial cells were seeded overnight at a density equivalent to 1.5×10^6 cells per 100 mm dish. Cultures were induced with Cytochalasin B (Sigma) at 10 μM for 2 hours, with Latrunculin A (Molecular Probes) at 2.5 μM for 3 hours, or with a combination of recombinant mouse 75 ng/ml VEGF (R&D systems) for 6-72 hours and 10 μM Cytochalasin B for 2 hours. Cells were processed for biochemistry or morphology immediately after the end of the induction.

[3] = test system: Py4.1 cells; assay: Fenestrae induction in Py4.1 cells, wholemount TEM; assay type: cell-based, mouse; details: for fenestrae formation: 2.5 μM Latrunculin A, 3 hours, wholemount TEM
Description: (§1) FIG. 9 is a graph regarding fenestrae induction in different endothelial cell types. The potential of different endothelial cell lines to form fenestrae under the optimal parameters of induction was assessed using wholemount TEM. bEND5, Py4.1, SVEC, and HUVEC cells were treated for 3 hours with vehicle (V) or 2.5 μM Latrunculin A (Lat), and the number of fenestrae was estimated as a fraction of the plasma membrane area occupied by sieve plates. Data points represent the average of two experiments, with 36 images captured per sample in each experiment. Error bars represent standard deviation between the two experiments.
A panel of endothelial cell subtypes was assessed for their fenestrae-forming potentials. Three mouse endothelial lines (bEND5, Py4.1, SVEC) and one human primary endothelial line (HUVEC) were cultured on gelatin-coated grids, treated with latrunculin A for 3 hours, and examined by wholemount TEM (FIG. 8). bEND5 and Py4.1 cells are brain endothelomas and ear/tail endotheliomas respectively, both originating from hemangiomas of Polyoma virus—infected mice. SVECs are lymph node endothelial cells infected with SV40 virus. HUVECs were chosen because of their widespread use and primary cell nature. […] The response of bEND5 and Py4.1 cells differed both in magnitude and in relation to the respective untreated controls. bEND5 cells harbored greater numbers of fenestrae overall, but contained some background fenestrae in the un-induced state.

[4] = test system: actin microfilaments of bEND5 cells; assay: Actin microfilament staining with Alexa546-conjugated phalloidin, time-course in bEND5 cells; assay type: cell-based, mouse; details: for earliest dramatic changes in the organization of actin, time of treatment / time until which cortical actin persisted / was dismantled / time within which stress fibers were reduced: 10 μM Cytochalasin B or 2.5 μM Latrunculin A
Description: Stress fibers were reduced within the first 20 minutes, whereas cortical actin persisted until about 60 minutes of treatment. At 120 minutes, individual actin bundles were spread around the cytoplasm. (Bar=8 μm)
FIG. 11 show images of bEND5 cells that were treated with 2.5 μM Latrunculin A for different periods of time, and actin microfilaments were stained with Alexa546-conjugated phalloidin. Stress fibers were reduced within the first 20 minutes, while complete disruption occurs at 60-120 minutes. Individual actin foci, small filaments, and actin-rich filopodia were present after 180 minutes of treatment. (Bar=8 μm)
(§2) Microfilaments were disrupted in all cell types upon treatment. (Bar=8 μm)
In parallel to the SEM analysis, bEND5 cells subjected to cytochalasin B and latrunculin A time-courses were stained for the presence of actin microfilaments using phalloidin (FIGS. 10 and 11). Untreated cells contained an extensive network of stress fibers spanning their cytoplasm. Dramatic changes in the organization of actin were however observed as early as after 10 minutes of treatment with either agent. […] At 120 minutes, the disassembled actin was concentrated in aggregates throughout the cytoplasm, while large areas remained actin-deficient. In cells treated with latrunculin A (FIG. 11) the disruption of stress fibers was faster, and the cortical cytoskeleton was dismantled within the first 20 minutes. Overall cells had more and larger actin-depleted areas, and the remainder of actin appeared irregularly arranged in short filaments around the cytoplasm or in structures resembling filopodia.

[5] = molecular target: actin filaments; details: barbed, fast growing end of actin filaments; cited from earlier work
[6] = test system: SVEC cells; assay: Fenestrae induction in SVEC cells, wholemount TEM; assay type: cell-based, mouse; details: 2.5 μM Latrunculin A, 3 hours
Description: as §1
(§3) A panel of endothelial cell subtypes was assessed for their fenestrae-forming potentials. Three mouse endothelial lines (bEND5, Py4.1, SVEC) and one human primary endothelial line (HUVEC) were cultured on gelatin-coated grids, treated with latrunculin A for 3 hours, and examined by wholemount TEM (FIG. 8). bEND5 and Py4.1 cells are brain endothelomas and ear/tail endotheliomas respectively, both originating from hemangiomas of Polyoma virus—infected mice. SVECs are lymph node endothelial cells infected with SV40 virus. HUVECs were chosen because of their widespread use and primary cell nature. […]

[7] = test system: HUVEC cells; assay: Fenestrae induction in HUVEC cells, wholemount TEM; assay type: cell-based, human; details: 2.5 μM Latrunculin A, 3 hours
Description: as §1, §3

[8] = test system: actin cytoskeleton of Py4.1 cells; assay: Actin cytoskeleton staining with phalloidin in Py4.1 cells; assay type: cell-based, mouse; details: 2.5 μM Latrunculin A, 3 hours
Source text: as §2
(§4) The actin cytoskeleton of all four cell types was stained with phalloidin to study the differential induction of endothelial cell subtypes by latrunculin A (FIG. 12). […] Observation of bEND5 and Py4.1 cells highlighted a difference in their actin cytoskeleton in the steady state (FIGS. 12A and 12C). Py4.1 cells had greater amounts of cortical actin. This could account for their decreased susceptibility to fenestrae formation compared to bEND5 cells, a discrepancy particularly apparent during induction with cytochalasin B.

[9] = test system: actin cytoskeleton of SVEC cells; assay: Actin cytoskeleton staining with phalloidin in SVEC cells; assay type: cell-based, mouse; details: 2.5 μM Latrunculin A, 3 hours
Source text: as §2, §4

[10] = test system: actin cytoskeleton of HUVEC cells; assay: Actin cytoskeleton staining with phalloidin in HUVEC cells; assay type: cell-based, human; details: 2.5 μM Latrunculin A, 3 hours
Source text: as §2, §4

[11] = molecular target: actin monomers; details: 1:1 complexes with actin monomers; cited from earlier work
[12] = test system: normally non-fenestrated anatomical sites; details: topical application or intradermal injection; cited from earlier work

CO[C@H]1C[C@H](CC[C@H](C)[C@H](O)[C@H](C)[C@H]2OC(=O)/C=C/C(C)=C/C[C@H](O)C[C@@H]3C=CC[C@@H](C[C@H](OC)[C@@H](C)[C@@H](O)C[C@@H](O)[C@H](C)[C@@H]([C@@H](C)[C@@H](O)[C@@H](C)CC[C@H]4C[C@H](OC)C[C@H](C)O4)OC(=O)/C=C/C(C)=C/C[C@H](O)C[C@@H]4C=CC[C@@H](C[C@H](OC)[C@@H](C)[C@@H](O)C[C@@H](O)[C@@H]2C)O4)O3)O[C@@H](C)C1 [swinholide A]
induction of fenestrae over untreated control [1]: less than 3 fold
fenestrae levels ([1]; untreated control contained over 3 fenestrae per μm^2): up to 9.1 per μm^2

C=C1[C@@H](C)[C@H]2[C@H](Cc3ccccc3)NC(=O)[C@]23OC(=O)/C=C/[C@H](O)CCC[C@@H](C)C/C=C/[C@H]3[C@@H]1O [cytochalasin B]
induction of fenestrae compared to the untreated control [2]: ~100 fold
maximum number of fenestrae [2]: 3.5 fenestrae per μm^2
time of treatment at maximum number of fenestrae [2]: 2 h
change in the number of fenestrae at 3 hours of treatment ([2]; versus the maximum at 2 hours): slight decrease
response of Py4.1 cells to cytochalasin B (fenestrae formation) [3]: responsive
earliest dramatic changes in the organization of actin, time of treatment [4]: 10 min
time until which cortical actin persisted / was dismantled [4]: about 60 minutes
time within which stress fibers were reduced [4]: ≤ 20 min
Kd [5]: 10 to 100 nM

C/C1=C/C(=O)O[C@@H]2C[C@@H](CC[C@H](C)/C=C\C=C\CC1)O[C@@](O)([C@@H]1CSC(=O)N1)C2 [latrunculin A]
fenestrae formation [2]: susceptible to fenestrae formation
fenestrae formation ([2]; listed as Latrunculin A): Abundant fenestrae
induction of fenestrae compared to the untreated control [2]: ~100 fold
maximum number of fenestrae [2]: up to 5.3 fenestrae per μm^2
maximum number of fenestrae ([2]; listed as Latrunculin A): 5.3 fenestrae per μm^2
potency in inducing fenestrae, comparison of the two agents ([2]; even when used at lower concentrations): more potent in inducing fenestrae than cytochalasin B
time of treatment at maximum number of fenestrae [2]: 3 h
viability of the cells ([2]; treatments extended over 3 hours): reduced considerably
fenestrae formation [3]: susceptible to fenestrae formation
fenestrae formation ([3]; listed as Latrunculin A): Abundant fenestrae
fenestrae formation [6]: no indication of fenestrae
fenestrae formation ([6]; listed as Latrunculin A): No fenestrae
fenestrae formation [7]: only very few
fenestrae formation ([7]; listed as Latrunculin A): rare fenestrae
time of complete disruption of actin microfilaments ([4]; 2.5 μM Latrunculin A): 60 to 120 min
state of the actin cytoskeleton after treatment ([4]; 2.5 μM Latrunculin A, 3 hours): completely disrupted
earliest dramatic changes in the organization of actin, time of treatment [4]: 10 min
time until which cortical actin persisted / was dismantled [4]: ≤ 20 min
time within which stress fibers were reduced [4]: ≤ 20 min
state of the actin cytoskeleton after treatment [8]: completely disrupted
state of the actin cytoskeleton after treatment [9]: completely disrupted
state of the actin cytoskeleton after treatment [10]: completely disrupted
Kd [11]: ~100 nM

VEGF
fenestrae induction, cells treated only with VEGF ([2]; Cytochalasin B omitted from the induction cocktail): minimal induction over background
time within which fenestrations are induced [12]: ≤ 10 min
